Assay results: ChEMBL document CHEMBL1142599, “Biocatalytic and antimetastatic studies of the marine cembranoids sarcophine and 2-epi-16-deoxysarcophine” (J Nat Prod, 2006)

Species: Mus musculus
Assay: Inhibition of mouse B16B15b cell migration after 16 hrs by wound-healing assay
Type: functional

| SMILES | Activity |
| --- | --- |
| CC1=C2CC/C(C)=C/C[C@H](O)[C@]3(C)O[C@H]3CC/C(C)=C/[C@@H]2OC1=O | Dose-dependent effect |
| CC1=C2CC/C(C)=C/CC[C@]3(C)O[C@H]3CC/C(C)=C/[C@@H]2OC1=O | Dose-dependent effect |
| CC1=C2[C@@H](O)C/C(C)=C/CC[C@]3(C)O[C@H]3CC/C(C)=C/[C@H]2OC1 | Dose-dependent effect |
| CC1=C2CC/C(C)=C/[C@@H](O)C[C@]3(C)O[C@H]3CC/C(C)=C/[C@H]2OC1 | Dose-dependent effect |
| C/C1=C\[C@H]2OC[C@@]3(C)O[C@@]23CC/C(C)=C/CC[C@]2(C)O[C@H]2CC1 | Dose-dependent effect |
| CC1=C2CC/C(C)=C/C[C@H](O)[C@]3(C)O[C@H]3CC/C(C)=C/[C@H]2OC1 | Dose-dependent effect |
| CC1=C2CC/C(C)=C/CC[C@]3(C)O[C@H]3CC/C(C)=C/[C@H]2OC1 | Dose-dependent effect |
